How the values were obtained:
[1] = test system: fetal bovine heart endothelial (FBHE) cells; test: Inhibition of FBHE cell growth stimulated by bFGF; assay type: cell-based; conditions: various concentrations, 1 ng/ml bFGF, 2 days, FIG. 8
Protocol: (§1) Growth of both fetal bovine heart endothelial (FBHE) cells and human umbilical vein endothelial cells (HUVEC) was promoted by addition of bFGF to the media. The inhibitory effect of complestatin on the cell growth stimulated by bFGF was investigated using these cells.
(1) 10% CS/DMEM containing FBHE at a concentration of 1×10^4 cells/ml was prepared for the cell suspension. One ml aliquots of this solution were then inoculated into each well of a 12-well plate and cultured for one day at 37° C. in a CO2 incubator. 1 ng/ml of bFGF and various concentrations of complestatin were added to each well followed by additional culturing for 2 days at 37° C. in a CO2 incubator. Next, the number of cells in each well was counted with a Coulter Counter (trade name, available from Coulter Electronics Co.).

[2] = test system: bovine aortic endothelial cells (BAEC); test: Tube formation of vascular endothelial cells in collagen gel; assay type: cell-based; conditions: Bos taurus, 48 h, 2 days, read-out: Tube formation inhibition rate
Protocol: The inhibitory effect of complestatin on angiogenesis was investigated using a modified method of Furubayashi, et al. (J. Jap. Pharm., 105, 357, 1995). In this method, vascular endothelial cells form a tube (blood vessel-like tubular structure) in collagen gel. Addition of complestatin to this system makes it possible to investigate the inhibitory effect of complestatin on angiogenesis.
(1) Collagen gel was prepared in the manner described below. To begin with, type I collagen solution (3 mg/ml, available from Wako Junyaku Co.), 10-fold concentrated HEPES-free DMEM, reconstitution buffer (2.2 g of sodium bicarbonate and 4.77 g of HEPES dissolved in 100 ml of 0.05 N aqueous sodium hydroxide solution) and deionized water were mixed on ice at a ratio of 5:1:1:3 followed by the addition of 0.75 ml aliquots to each well of a 12-well plate. This plate was then incubated for 20 minutes in an incubator at 37° C. to form a gel.
(2) A cell suspension was prepared by suspending 3×10^5 cells/ml of bovine aortic endothelial cells (BAEC) in 10% CS/DMEM, after which 1.5 ml aliquots were inoculated onto the collagen gel followed by culturing for one day at 37° C. in a CO2 incubator. After removing the medium and washing four times with DMEM, 0.75 ml aliquots of the above-mentioned type I collagen solution were layered onto the plate followed by gelation at 37° C. in an incubator. 1.5 ml of 0.5% CS/DMEM containing various concentrations of complestatin were added to the resulting gel followed by culturing for 2 days at 37° C. in a CO2 incubator.
(3) After culturing, photographs were taken of four fields randomly selected for each well and these photographs were then analyzed by using the Olympus image processing analyzer Type SP500F (trade name, available from Olympus Co.) to determine the lengths of all tubes. The length of tube was then divided by the field area to determine the tube length per unit area.
The tube formation inhibition rate of complestatin was calculated according to the following formula:
{1− (tube length per unit area at each concentration/tube length per unit area in the absence of addition of complestatin)}×100

[3] = test system: human leukemia (HL-60) cells; test: Antitumor activity, HL-60 cells transplanted subcutaneously to SCID mice; assay type: in vivo, mouse; conditions: 5 mg/kg intraperitoneally, days 1 to 3, 5 to 9, 12 and 13, CB17 SCID mice, tumor size after 20 days
Protocol: The antitumor activity of complestatin was confirmed in an experiment using human leukemia (HL-60) cells. To begin with, 5×10^6 HL-60 cells were transplanted subcutaneously to CB17. SCID mice (control group: 4 mice, experimental group: 4 mice), and tumor size was measured after 20 days. Complestatin was dissolved in PBS, and administered intraperitoneally at 250μl/day once a day during days 1 to 3, days 5 to 9 and days 12 and 13. The dosing concentration of complestatin was set at 5 mg/kg. The tumor growth inhibition rate caused by complestatin was calculated according to the following formula:
{1− (tumor size at dosing concentration/tumor size at dosing concentration of 0 mg/kg)}×100

[4] = test system: human umbilical vein endothelial cells (HUVEC); test: Inhibition of HUVEC cell growth stimulated by bFGF; assay type: cell-based; conditions: various concentrations, 10 ng/ml bFGF, 2 days, FIG. 8
Protocol: as §1
(2) On the other hand, medium containing HUVEC at a concentration of 1×10^4 cells/ml (MCDB131 medium containing 10% fetal bovine serum, 25 mM HEPES (pH 7.5), 10 units/ml of penicillin and 10 μg/ml of streptomycin) was prepared for the cell suspension. One ml aliquots of the cell suspension were inoculated into each well of a 12-well plate precoated with type I collagen, and incubated for one day at 37° C. in a CO2 incubator. 10 ng/ml of bFGF and various concentrations of complestatin were added to each well followed by additional incubation for 2 days at 37° C. in a CO2 incubator. Next, the number of cells in each well was counted with a Coulter Counter (trade name, available from Coulter Electronics Co.). Furthermore, with the exception of not adding complestatin, the same procedure was performed for the control.

[5] = test system: chorioallantoic membrane of chick embryo; test: Angiogenesis in the chick embryo chorioallantoic membrane; assay type: in vivo; conditions: 2 days, % of fertilized eggs with inhibition
Protocol: The inhibitory effect of complestatin on angiogenesis in the chorioallantoic membrane of chick embryo was investigated according to the method of T. Oikawa, et al. (J. Antibiotics, 44, 1033, 1991). To begin with, a portion of the uppermost part of the air chamber measuring about 1 cm square was removed from three-day-old fertilized chicken eggs, and cultured for 2 days in a humidified incubator. A silicon ring having an outer diameter of 5 mm and inner diameter of 3 mm was placed on the 5-day-old chorioallantoic membrane, and 10 μl of a 1% methylcellulose solution containing various concentrations of the complestatin obtained in Example 2 were added to the inside of the ring.
Moreover, after incubating for 2 days, a suitable amount of fat emulsion (Intralipos, trade name, available from Midori Juji Co.) was injected beneath the chorioallantoic membrane to facilitate microscopic observation followed by observation of angiogenesis in the chorioallantoic membrane. Fertilized eggs in which a region free of blood vessels in the chorioallantoic membrane (having a diameter of at least 3 mm) were judged as having observed inhibition of angiogenesis by complestatin. Angiogenesis inhibition rate (%) was calculated according to the following formula:
100× (number of fertilized eggs in which inhibition of angiogenesis was observed)/(number of fertilized eggs used in test)

[6] = test system: bFGF receptors; test: Inhibition of specific binding of 125I-bFGF to receptors on Balb/3T3 clone A31 cells; parameters: species or system mouse; conditions: various concentrations, 2 ng/ml 125I-bFGF, 1.5 hours at 4° C., FIG. 5
Protocol: (3) Inhibitory effects on binding of bFGF to receptors was investigated for the above-mentioned sample solution according to the method of A. Yayon, et al. (Proc. Natl. Acad. Sci., USA, 90, 10643, 1993).
Namely, 1 ml of medium containing mouse fibroblast cell Balb/3T3 clone A31 cells at a concentration of 1×10^5 cells/ml (Dulbecco's modified Eagle's medium containing 10% calf serum, 25 mM HEPES (pH 7.5), 10 units/ml of penicillin and 10 μg/ml of streptomycin (10% CS/DMEM)) was added to a 24-well culture plate, and cultured for one day at 37° C. in a CO2 incubator. Furthermore, mouse fibroblast cells are known to express FGF receptors on their cell surfaces (J. Biol. Chem., 268, 9611, 1993). […]
Following completion of the reaction, after removing the binding medium and washing once with cold binding medium, the plate was washed twice with cold PBS (0.2 g potassium chloride, 0.2 g potassium primary phosphate, 8 g sodium chloride, 1.15 g sodium secondary phosphate and 1 liter of deionized water) at pH 7.5 containing 1.6 M sodium chloride. […] This procedure was repeated again, the solution was combined with the previous solution and then transferred to an RIA tube where radioactivity was measured with a gamma counter (available from Pharmacia Co.).
The amount of bFGF bound to receptors (specifically bound amount) was determined according to the following formula: […]

[7] = test system: Balb/3T3 clone A31 cells; test: Inhibition of cell migration stimulated by bFGF (chemotaxis chamber); assay type: cell-based, mouse; conditions: various concentrations, 1 ng/ml bFGF, 5 hours, FIG. 7
Source text: The effect of complestatin on cell migration stimulated by bFGF was investigated using a 96-well chemotaxis chamber (available from NEURO PROBE CO.) installed with an 8 μm frame filter (available from NEURO PROBE CO.) precoated with gelatin.
The experimental principle is illustrated-in FIG. 6. When bFGF is placed in the bottom well, cells adhered to the frame filter in the top well migrate to the bottom well.
Addition of complestatin to the bottom well can be used to investigate the inhibitory effect of complestatin on cell movement.
(1) 100 μl of cell suspension (0.5% CS/DMEM containing Balb/3T3 clone A31 cells at a concentration of 5×10^5 cells/ml) were placed in the top wells. In addition, 35 μl of 0.5% CS/DMEM containing various concentrations of complestatin and 1 ng/ml of bFGF were placed in the bottom wells.
(2) After incubating the chamber for 5 hours at 37° C. in a CO2 incubator, the frame filter was removed from the chamber, the cells were stained with Diff-Quik staining solution (trade name, available from Kokusai Shiyaku Co.), and the number of cells that migrated to the bottom surface of the filter was counted. Furthermore, with the exception of not adding complestatin to the bottom wells, the same procedure was performed for the control.

[8] = test system: mouse fibrosarcoma (Meth A) cells; test: Antitumor activity, Meth A cells transplanted subcutaneously to mice; assay type: in vivo; conditions: days 1 to 4 and 7 to 9, BALB/c-nu/nu mice, tumor size after 10 days
Protocol: The antitumor activity of complestatin was confirmed in an experiment using mouse fibrosarcoma (Meth A) cells. To begin with, 1×10^6 Meth A cells cultured in the abdominal cavity of BALB/c-nu/nu mice were transplanted subcutaneously to BALB/c-nu/nu mice (control group: 5 mice, experimental group: 5 mice), and tumor size was measured after 10 days.
Complestatin was dissolved in PBS, and administered intraperitoneally at 250μl/day once a day during days 1 to 4 and days 7 to 9. The dosing concentrations of complestatin were set at 5 mg/kg and 10 mg/kg. The tumor growth inhibition rate caused by complestatin was calculated according to the following formula:
{1− (tumor size at each dosing concentration/tumor size at dosing concentration of 0 mg/kg)}×100

## CN1C(=O)C(c2cc(Cl)c(O)c(Cl)c2)NC(=O)C2NC(=O)C(c3cc(Cl)c(O)c(Cl)c3)NC(=O)C(NC(=O)C(=O)c3cc(Cl)c(O)c(Cl)c3)Cc3c[nH]c4cc(ccc34)-c3cc2cc(c3O)Oc2ccc(cc2)CC1C(=O)NC(C(=O)O)c1ccc(O)cc1 (centres unmarked) [complestatin]
[1]
  inhibition of growth of FBHE promoted by bFGF: concentration-dependently inhibit
[2]; 0.78 μg/ml complestatin
  inhibition at 0.78 µg/mL: 3%
[2]; 1.6 μg/ml complestatin
  inhibition at 1.6 µg/mL: 17%
[2]; 3.1 μg/ml complestatin
  inhibition at 3.1 µg/mL: 10%
[2]; 6.3 μg/ml complestatin
  inhibition at 6.3 µg/mL: 21%
[2]; 13 μg/ml complestatin
  inhibition at 13 µg/mL: 43%
[2]; 25 μg/ml complestatin
  inhibition at 25 µg/mL: 91%
[2]; 50 μg/ml complestatin
  inhibition at 50 µg/mL: 94%
[2]; 100 μg/ml complestatin
  inhibition at 100 µg/mL: 99%
[3]
  Growth inhibition rate (tumor size): 76%
[4]
  inhibition of growth of HUVEC promoted by bFGF: concentration-dependently inhibit
[5]; 6.25 μg/egg
  Angiogenesis inhibition rate: 14%
[5]; 12.5 μg/egg
  Angiogenesis inhibition rate: 33%
[5]; 25 μg/egg
  Angiogenesis inhibition rate: 33%
[5]; 50 μg/egg
  Angiogenesis inhibition rate: 52%
[5]; 100 μg/egg
  Angiogenesis inhibition rate: 77%
[6]
  inhibition of specific binding of 125I-bFGF to receptors: concentration-dependently inhibit
[7]
  inhibition of Balb/3T3 clone A31 cell migration stimulated by bFGF: concentration-dependently inhibit
[8]; 5 mg/kg intraperitoneally
  Growth inhibition rate (tumor size): 40%
[8]; 10 mg/kg intraperitoneally
  Growth inhibition rate (tumor size): 68%

Source: patent publication US6365571B1, “FGF inhibitor, angiogenesis inhibitor and antitumor agent containing complestatin or its derivative as effective ingredient” (NODA Institute for Scientific Research, priority 1998, dated 2002)
